Test results as given in patent US9090593B2, “Bicyclic compounds as Pim inhibitors” (AMGEN INC., priority 2010, dated 2015).

How the values were obtained:
[1] = molecular target: T1, Pim-1 stably transfected into the U2OS human osteogenic sarcoma line (Homo sapiens, UniProt P11309); assay: Pim cell assay, phospho-BAD normalized against total BAD, U2OS stably transfected with Pim-1; assay type: cell-based; conditions: U2OS cells stably transfected with Pim-1, phospho-BAD; high dose […]; read-out: Pim1_Cell_IC50
T1 construct: expressed in transfected cells; host or cells: U2OS human osteogenic sarcoma line
T1 sequence (P11309 whole entry): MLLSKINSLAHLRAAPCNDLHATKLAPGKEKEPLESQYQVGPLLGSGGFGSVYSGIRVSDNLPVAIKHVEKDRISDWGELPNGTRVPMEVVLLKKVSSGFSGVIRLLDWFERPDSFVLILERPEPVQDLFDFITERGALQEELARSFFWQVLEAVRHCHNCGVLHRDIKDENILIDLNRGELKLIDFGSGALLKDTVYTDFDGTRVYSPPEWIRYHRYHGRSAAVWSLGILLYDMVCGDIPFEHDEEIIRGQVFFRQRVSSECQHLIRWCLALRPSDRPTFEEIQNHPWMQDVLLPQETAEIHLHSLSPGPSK
In short: (§1)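 Read-out is phospho-BAD relative to total BAD, by MSD electrochemiluminescence on lysates, expressed as % phosphoprotein = (2×phospho)/(phospho+total)×100. Engineered U2OS lines carrying stably transfected Pim-1 or Pim-2 received 10-point compound dilutions at 0.3% final DMSO after overnight culture at 37 °C; DMSO-only wells served as high control.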

[2] = molecular target: T2, full length recombinant Pim-1 protein (Homo sapiens, UniProt P11309); assay: Pim-1 enzyme assay (HTRF, phosphorylation of biotinylated-BAD (S112) peptide); assay type: biochemical; conditions: enzyme assay, Pim-1; read-out: Pim_1_IC50
T2 construct: by full length recombinant Pim-1, Pim-2, or Pim-3 protein; hexahistidine tag followed by a thrombin cleavage site (N); made in house; host or cells: Sf9 (baculovirus) or E. coli (pET28)
T2 sequence (P11309 whole entry): as above
In short: (§2)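 Each full-length human Pim enzyme phosphorylates a biotinylated BAD (S112) peptide, and the product is sensed by Eu anti-phospho-BAD antibody with streptavidin-APC after quenching with 3 mM EDTA. Conditions: 60 mM Hepes pH 7.0, 0.05% BSA, 2 mM DTT.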

[3] = molecular target: T3, Pim-2 stably transfected into the U2OS human osteogenic sarcoma line (Homo sapiens, UniProt Q9P1W9); assay: Pim cell assay, phospho-BAD normalized against total BAD, U2OS stably transfected with Pim-2; assay type: cell-based; conditions: U2OS cells stably transfected with Pim-2, phospho-BAD; high dose […]; read-out: Pim2_Cell_IC50; note: high dose 31.6 µM
T3 construct: expressed in transfected cells; host or cells: U2OS human osteogenic sarcoma line
T3 sequence (Q9P1W9 whole entry): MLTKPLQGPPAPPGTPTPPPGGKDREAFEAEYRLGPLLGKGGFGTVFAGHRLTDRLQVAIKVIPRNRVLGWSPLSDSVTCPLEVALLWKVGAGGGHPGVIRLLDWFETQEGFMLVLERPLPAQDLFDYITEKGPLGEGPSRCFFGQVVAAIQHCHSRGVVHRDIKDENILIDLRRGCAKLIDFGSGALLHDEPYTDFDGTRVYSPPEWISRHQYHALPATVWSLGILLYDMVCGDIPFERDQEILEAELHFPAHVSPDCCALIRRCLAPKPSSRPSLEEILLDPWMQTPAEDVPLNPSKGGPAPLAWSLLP
In short: as §1

[4] = molecular target: T4, full length recombinant Pim-2 protein (Homo sapiens, UniProt Q9P1W9); assay: Pim-2 enzyme assay (HTRF, phosphorylation of biotinylated-BAD (S112) peptide); assay type: biochemical; conditions: enzyme assay, Pim-2; read-out: Pim2_IC50
T4 construct: by full length recombinant Pim-1, Pim-2, or Pim-3 protein; hexahistidine tag followed by a thrombin cleavage site (N); made in house; host or cells: Sf9 (baculovirus) or E. coli (pET28)
T4 sequence (Q9P1W9 whole entry): as above
In short: as §2

[5] = molecular target: T5, full length recombinant Pim-3 protein (Homo sapiens, UniProt Q86V86); assay: Pim-3 enzyme assay (HTRF, phosphorylation of biotinylated-BAD (S112) peptide); assay type: biochemical; conditions: read-out: Pim3 IC50
T5 construct: by full length recombinant Pim-1, Pim-2, or Pim-3 protein; purchased Millipore (UK)
In short: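 HTRF read-out, streptavidin-APC plus Eu-labelled anti-phospho-BAD (S112) antibody, measures BAD peptide phosphorylation by full-length recombinant Pim-3. Buffer: 60 mM Hepes pH 7.0, 2 mM DTT, 0.05% BSA; EDTA (3 mM) stop. Percent of control per well, IC50 by 4-parameter logistic fit.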

Row | SMILES | IC50 [1] [nM] | IC50 [2] [nM] | IC50 [3] [nM] | IC50 [4] [nM] | IC50 [5] [nM]
1 | NC1CCN(c2cncc(-c3n[nH]c4ccc(-c5ccc6ncsc6c5)cc34)n2)CC1 [Example 52, 1-(6-(5-(1,3-benzothiazol-6-yl)-1H-indazol-3-yl)-2-pyrazinyl)-4-piperidinamine] | 237 | 4 | 9500 | 24 | 1
2 | NC1CCN(c2cncc(-c3n[nH]c4ccc(-c5cnc6ccccc6c5)cc34)n2)CC1 [Example 55, 1-(6-(5-(3-quinolinyl)-1H-indazol-3-yl)-2-pyrazinyl)-4-piperidinamine] | 287 | 1 | > 31600 | 51 | 1
3 | CN1CCOc2cc(-c3ccc4[nH]nc(-c5cncc(N6CCC(N)CC6)n5)c4c3)cnc21 [Example 58, 1-(6-(5-(4-methyl-3,4-dihydro-2H-pyrido[3,2-b][1,4]oxazin-7-yl)-1H-indazol-3-yl)-2-pyrazinyl)-4-piperidinamine] | 164 | 2 | 6760 | 11 | 1
4 | N#Cc1ccccc1-c1ccc2[nH]nc(-c3cncc(N4CCC(N)CC4)n3)c2c1 [Example 60, 2-(3-(6-(4-amino-1-piperidinyl)-2-pyrazinyl)-1H-indazol-5-yl)benzonitrile] | 419 | 5 | 12800 | 36 | 4
5 | COc1ccc(F)c(-c2ccc3[nH]nc(-c4cncc(N5CCC(N)CC5)n4)c3c2)c1 [Example 61, 1-(6-(5-(2-fluoro-5-methoxyphenyl)-1H-indazol-3-yl)-2-pyrazinyl)-4-piperidinamine] | 3010 | 10 | > 31600 | 65 | 6
6 | N#Cc1cccc(-c2ccc3[nH]nc(-c4cncc(N5CCC(N)CC5)n4)c3c2)c1 [Example 62, 3-(3-(6-(4-amino-1-piperidinyl)-2-pyrazinyl)-1H-indazol-5-yl)benzonitrile] | 599 | 11 | > 31600 | 59 | 7
7 | COc1cccc(-c2ccc3[nH]nc(-c4cncc(N5CCC(N)CC5)n4)c3c2)n1 [Example 63, 1-(6-(5-(6-methoxy-2-pyridinyl)-1H-indazol-3-yl)-2-pyrazinyl)-4-piperidinamine] | 1690 | 11 | > 31600 | 161 | 8
8 | CC(C)Oc1cccc(-c2ccc3[nH]nc(-c4cncc(N5CCC(N)CC5)n4)c3c2)n1 [Example 64, 1-(6-(5-(6-(1-methylethoxy)-2-pyridinyl)-1H-indazol-3-yl)-2-pyrazinyl)-4-piperidinamine] | 3020 | 20 | > 31600 | 150 | 16
9 | CCOc1cccc(-c2ccc3[nH]nc(-c4cncc(N5CCC(N)CC5)n4)c3c2)n1 [Example 65, 1-(6-(5-(6-ethoxy-2-pyridinyl)-1H-indazol-3-yl)-2-pyrazinyl)-4-piperidinamine] | 3530 | 13 | > 31600 | 274 | 18
10 | NC1CCN(c2cncc(-c3n[nH]c4ccc(-c5ccccc5F)cc34)n2)CC1 [Example 67, 1-(6-(5-(2-fluorophenyl)-1H-indazol-3-yl)-2-pyrazinyl)-4-piperidinamine] | 380 | 2 | 15000 | 10 | 1
11 | NC1CCN(c2cncc(-c3n[nH]c4ccc(-c5cccnc5O)cc34)n2)CC1 [Example 68, 3-(3-(6-(4-amino-1-piperidinyl)-2-pyrazinyl)-1H-indazol-5-yl)-2-pyridinol] | > 31600 | 20 | > 31600 | 88 | 11
12 | NC1CCN(c2cncc(-c3n[nH]c4ccc(-c5cccc(F)c5F)cc34)n2)CC1 [Example 71, 1-(6-(5-(2,3-difluorophenyl)-1H-indazol-3-yl)-2-pyrazinyl)-4-piperidinamine] | 256 | 3 | 8820 | 11 | 1
13 | NC1CCN(c2cncc(-c3n[nH]c4ccc(-c5ccccc5O)cc34)n2)CC1 [Example 72, 2-(3-(6-(4-amino-1-piperidinyl)-2-pyrazinyl)-1H-indazol-5-yl)phenol] | 533 | 3 | > 31600 | 82 | 5
14 | NC1CCN(c2cncc(-c3n[nH]c4ccc(-c5cc(=O)[nH]cc5Cl)cc34)n2)CC1 [Example 74, 4-(3-(6-(4-amino-1-piperidinyl)-2-pyrazinyl)-1H-indazol-5-yl)-5-chloro-2(1H)-pyridinone] | > 31600 | 14 | > 31600 | 54 | 15
15 | NC1CCN(c2cncc(-c3n[nH]c4ccc(-c5ccccc5)cc34)n2)CC1 [Example 75, 1-(6-(5-phenyl-1H-indazol-3-yl)-2-pyrazinyl)-4-piperidinamine] | 480 | 7 | > 31600 | 49 | 3
16 | CS(=O)(=O)c1cccc(-c2ccc3[nH]nc(-c4cncc(N5CCC(N)CC5)n4)c3c2)c1 [Example 76, 1-(6-(5-(3-(methylsulfonyl)phenyl)-1H-indazol-3-yl)-2-pyrazinyl)-4-piperidinamine] | 2740 | 16 | > 31600 | 187 | 5
17 | NC1CCN(c2cncc(-c3n[nH]c4ccc(-c5cccc(O)c5)cc34)n2)CC1 [Example 78, 3-(3-(6-(4-amino-1-piperidinyl)-2-pyrazinyl)-1H-indazol-5-yl)phenol] | 885 | 2 | 7970 | 27 | 1

Results, then the compound that gave them:

Row | IC50 [1] [nM] | IC50 [2] [nM] | IC50 [3] [nM] | IC50 [4] [nM] | IC50 [5] [nM] | SMILES
18 | 1460 | 13 | > 31600 | 87 | 9 | CN1C(=O)Cc2cc(-c3ccc4[nH]nc(-c5cncc(N6CCC(N)CC6)n5)c4c3)ccc21 [Example 51, 5-(3-(6-(4-amino-1-piperidinyl)-2-pyrazinyl)-1H-indazol-5-yl)-1-methyl-1,3-dihydro-2H-indol-2-one]
19 | 280 | 2 | 9930 | 17 | 1 | NC1CCN(c2cncc(-c3n[nH]c4ccc(-c5ccc6scnc6c5)cc34)n2)CC1 [Example 53, 1-(6-(5-(1,3-benzothiazol-5-yl)-1H-indazol-3-yl)-2-pyrazinyl)-4-piperidinamine]
20 | 130 | 2 | > 31600 | 15 | 1 | NC1CCN(c2cncc(-c3n[nH]c4ccc(-c5ccc6nccnc6c5)cc34)n2)CC1 [Example 56, 1-(6-(5-(6-quinoxalinyl)-1H-indazol-3-yl)-2-pyrazinyl)-4-piperidinamine]
21 | 2160 | 3 | > 31600 | 28 | 11 | CS(=O)(=O)c1ccc(-c2ccc3[nH]nc(-c4cncc(N5CCC(N)CC5)n4)c3c2)cc1 [Example 59, 1-(6-(5-(4-(methylsulfonyl)phenyl)-1H-indazol-3-yl)-2-pyrazinyl)-4-piperidinamine]
22 | 401 | 4 | 17300 | 33 | 2 | NC1CCN(c2cncc(-c3n[nH]c4ccc(-c5cccc(F)n5)cc34)n2)CC1 [Example 66, 1-(6-(5-(6-fluoro-2-pyridinyl)-1H-indazol-3-yl)-2-pyrazinyl)-4-piperidinamine]
23 | 255 | 5 | > 31600 | 18 | 4 | COc1cc(-c2ccc3[nH]nc(-c4cncc(N5CCC(N)CC5)n4)c3c2)c(F)cn1 [Example 70, 1-(6-(5-(5-fluoro-2-methoxy-4-pyridinyl)-1H-indazol-3-yl)-2-pyrazinyl)-4-piperidinamine]
24 | 453 | 6 | > 31600 | 70 | 3 | COc1cccc(-c2ccc3[nH]nc(-c4cncc(N5CCC(N)CC5)n4)c3c2)c1 [Example 77, 1-(6-(5-(3-methoxyphenyl)-1H-indazol-3-yl)-2-pyrazinyl)-4-piperidinamine]
25 | 2380 | 3 | > 31600 | 15 | 1 | NC1CCN(c2cncc(-c3n[nH]c4ccc(-c5ccn[nH]5)cc34)n2)CC1 [Example 80, 1-(6-(5-(1H-pyrazol-5-yl)-1H-indazol-3-yl)-2-pyrazinyl)-4-piperidinamine]
